Measured values reported in paper PMC11839852, “Preclinical comparison of (radio)lanthanides using mass spectrometry and nuclear imaging techniques: biodistribution of lanthanide-based tumor-targeting agents and lanthanides in ionic form” (European Journal of Nuclear Medicine and Molecular Imaging, 2024).
Read-outs that look alike come from different tables or passages of the source. Marks after values point to notes of the source that are not given here. Where a SMILES comes first, the peptide text is derived from it. Bridges are numbered along the chain shown (N, C = ends). [ ]: non-standard residue; d: D form. The star is where a group is joined. DOTA = O=C(O)CN1CCN(CC(=O)O)CCN(CC(=O)*)CCN(CC(=O)O)CC1; dPhe(4-NHCONH2) = NC(=O)Nc1ccc(C[C@@H](N)C(=O)O)cc1; Phe(4-Cl) = N[C@@H](Cc1ccc(Cl)cc1)C(=O)O

Key:
[1] = tested on: PC-3 PIP/flu tumor-bearing mice; details: Ln-PSMA-617; for Tissue uptake: Blood / Tissue uptake: Bone / Tissue uptake: Heart / Tissue uptake: Intestines / Tissue uptake: Kidneys / Tissue uptake: Liver / Tissue uptake: Lung / Tissue uptake: Muscle / Tissue uptake: Salivary glands / Tissue uptake: Spleen / Tissue uptake: Stomach: PC-3 PIP/flu tumor-bearing mice; for Tissue uptake: PC-3 flu tumor: PSMA-negative xenograft; for Tissue uptake: PC-3 PIP tumor: PSMA-positive xenograft; for PC-3 PIP tumor-to-background organ ratios: Tumor-to-blood / PC-3 PIP tumor-to-background organ ratios: Tumor-to-liver: estimated ratios (organ <0.5% ID/g)
[2] = Biodistribution of Ln-DOTATATE and Ln-DOTA-LM3 (multiplexed ICP-MS); details: female, CD1 nude, mouse, intravenous, 0.5 nmol, AR42J tumor-bearing mice; for tissue uptake at 1 h: 1 h p.i.; for tissue uptake at 24 h: 24 h p.i.
[3] = AR42J tumor, Tissue uptake: AR42J tumor
[4] = intestines, Tissue uptake: Intestines
[5] = kidneys, Tissue uptake: Kidneys
[6] = pancreas, Tissue uptake: Pancreas
[7] = salivary glands, Tissue uptake: Salivary glands

O=C([O-])CN1CCN(CC(=O)[O-])CCN(CC(=O)NC[C@H]2CC[C@H](C(=O)N[C@@H](Cc3ccc4ccccc4c3)C(=O)NCCCC[C@H](NC(=O)N[C@@H](CCC(=O)O)C(=O)O)C(=O)O)CC2)CCN(CC(=O)[O-])CC1.[153Eu+3] [[^153Eu]Eu-PSMA-617]
PC-3 PIP tumor-to-background organ ratios: Tumor-to-kidney ([1]; 1 h p.i.): 3.3 ± 1.1
Tissue uptake: Blood ([1]; 1 h p.i.): <0.5 % ID/g
Tissue uptake: Bone ([1]; 1 h p.i.): <0.5 % ID/g
Tissue uptake: Heart ([1]; 1 h p.i.): 0.52 ± 0.42 % ID/g
Tissue uptake: Intestines ([1]; 1 h p.i.): <0.5 % ID/g
Tissue uptake: Kidneys ([1]; 1 h p.i.): 8.1 ± 3.5 % ID/g
Tissue uptake: Liver ([1]; 1 h p.i.): <0.5 % ID/g
Tissue uptake: Lung ([1]; 1 h p.i.): <0.5 % ID/g
Tissue uptake: Muscle ([1]; 1 h p.i.): <0.5 % ID/g
Tissue uptake: Salivary glands ([1]; 1 h p.i.): <0.5 % ID/g
Tissue uptake: Spleen ([1]; 1 h p.i.): 0.51 ± 0.17 % ID/g
Tissue uptake: Stomach ([1]; 1 h p.i.): <0.5 % ID/g
Tissue uptake: PC-3 flu tumor ([1]; 1 h p.i.): <0.5 % ID/g
Tissue uptake: PC-3 PIP tumor ([1]; 1 h p.i.): 24 ± 3 % ID/g
PC-3 PIP tumor-to-background organ ratios: Tumor-to-blood ([1]; 1 h p.i.): >50^*
PC-3 PIP tumor-to-background organ ratios: Tumor-to-liver ([1]; 1 h p.i.): >50^*
PC-3 PIP tumor-to-background organ ratios: Tumor-to-kidney ([1]; 4 h p.i.): 23 ± 3
Tissue uptake: Blood ([1]; 4 h p.i.): <0.5 % ID/g
Tissue uptake: Bone ([1]; 4 h p.i.): <0.5 % ID/g
Tissue uptake: Heart ([1]; 4 h p.i.): <0.5 % ID/g
Tissue uptake: Intestines ([1]; 4 h p.i.): <0.5 % ID/g
Tissue uptake: Kidneys ([1]; 4 h p.i.): 1.1 ± 0.3 % ID/g
Tissue uptake: Liver ([1]; 4 h p.i.): <0.5 % ID/g
Tissue uptake: Lung ([1]; 4 h p.i.): <0.5 % ID/g
Tissue uptake: Muscle ([1]; 4 h p.i.): <0.5 % ID/g
Tissue uptake: Salivary glands ([1]; 4 h p.i.): <0.5 % ID/g
Tissue uptake: Spleen ([1]; 4 h p.i.): <0.5 % ID/g
Tissue uptake: Stomach ([1]; 4 h p.i.): <0.5 % ID/g
Tissue uptake: PC-3 flu tumor ([1]; 4 h p.i.): <0.5 % ID/g
Tissue uptake: PC-3 PIP tumor ([1]; 4 h p.i.): 23 ± 3 % ID/g
PC-3 PIP tumor-to-background organ ratios: Tumor-to-blood ([1]; 4 h p.i.): >46^*
PC-3 PIP tumor-to-background organ ratios: Tumor-to-liver ([1]; 4 h p.i.): >46^*

O=C([O-])CN1CCN(CC(=O)[O-])CCN(CC(=O)NCC2CCC(C(=O)NC(Cc3ccc4ccccc4c3)C(=O)NCCCCC(NC(=O)NC(CCC(=O)O)C(=O)O)C(=O)O)CC2)CCN(CC(=O)[O-])CC1.[Tb+3] (stereo not shown) [[^159Tb]Tb-PSMA-617]
PC-3 PIP tumor-to-background organ ratios: Tumor-to-kidney ([1]; 1 h p.i.): 3.3 ± 1.0
Tissue uptake: Blood ([1]; 1 h p.i.): <0.5 % ID/g
Tissue uptake: Bone ([1]; 1 h p.i.): <0.5 % ID/g
Tissue uptake: Heart ([1]; 1 h p.i.): <0.5 % ID/g
Tissue uptake: Intestines ([1]; 1 h p.i.): <0.5 % ID/g
Tissue uptake: Kidneys ([1]; 1 h p.i.): 8.4 ± 3.5 % ID/g
Tissue uptake: Liver ([1]; 1 h p.i.): <0.5 % ID/g
Tissue uptake: Lung ([1]; 1 h p.i.): <0.5 % ID/g
Tissue uptake: Muscle ([1]; 1 h p.i.): <0.5 % ID/g
Tissue uptake: Salivary glands ([1]; 1 h p.i.): <0.5 % ID/g
Tissue uptake: Spleen ([1]; 1 h p.i.): <0.5 % ID/g
Tissue uptake: Stomach ([1]; 1 h p.i.): <0.5 % ID/g
Tissue uptake: PC-3 flu tumor ([1]; 1 h p.i.): <0.5 % ID/g
Tissue uptake: PC-3 PIP tumor ([1]; 1 h p.i.): 25 ± 3 % ID/g
PC-3 PIP tumor-to-background organ ratios: Tumor-to-blood ([1]; 1 h p.i.): >51^*
PC-3 PIP tumor-to-background organ ratios: Tumor-to-liver ([1]; 1 h p.i.): >51^*
PC-3 PIP tumor-to-background organ ratios: Tumor-to-kidney ([1]; 4 h p.i.): 24 ± 3
Tissue uptake: Blood ([1]; 4 h p.i.): <0.5 % ID/g
Tissue uptake: Bone ([1]; 4 h p.i.): <0.5 % ID/g
Tissue uptake: Heart ([1]; 4 h p.i.): <0.5 % ID/g
Tissue uptake: Intestines ([1]; 4 h p.i.): <0.5 % ID/g
Tissue uptake: Kidneys ([1]; 4 h p.i.): 1.0 ± 0.2 % ID/g
Tissue uptake: Liver ([1]; 4 h p.i.): <0.5 % ID/g
Tissue uptake: Lung ([1]; 4 h p.i.): <0.5 % ID/g
Tissue uptake: Muscle ([1]; 4 h p.i.): <0.5 % ID/g
Tissue uptake: Salivary glands ([1]; 4 h p.i.): <0.5 % ID/g
Tissue uptake: Spleen ([1]; 4 h p.i.): <0.5 % ID/g
Tissue uptake: Stomach ([1]; 4 h p.i.): <0.5 % ID/g
Tissue uptake: PC-3 flu tumor ([1]; 4 h p.i.): <0.5 % ID/g
Tissue uptake: PC-3 PIP tumor ([1]; 4 h p.i.): 23 ± 3 % ID/g
PC-3 PIP tumor-to-background organ ratios: Tumor-to-blood ([1]; 4 h p.i.): >46^*
PC-3 PIP tumor-to-background organ ratios: Tumor-to-liver ([1]; 4 h p.i.): >46^*

C[C@@H](O)[C@@H]1NC(=O)[C@H](CCCCN)NC(=O)[C@@H](Cc2ccc(NC(N)=O)cc2)NC(=O)[C@H](Cc2ccc(O)cc2)NC(=O)[C@H](NC(=O)[C@H](Cc2ccc(Cl)cc2)NC(=O)CN2CCN(CC(=O)O)CCN(CC(=O)O)CCN(CC(=O)O)CC2)CSSC[C@@H](C(=O)N[C@H](Cc2ccc(O)cc2)C(N)=O)NC1=O [[^175Lu]Lu-DOTA-LM3] ({DOTA}-[Phe(4-Cl)][dC]Y[dPhe(4-NHCONH2)]KTC[dY]-NH2; disulfide 2-7 (inferred); C-terminus assumed)
tissue uptake at 1 h [2, 3]: 4.5 ± 0.2 %ID/g
tissue uptake at 24 h [2, 3]: 2.7 ± 0.3 %ID/g
tissue uptake at 1 h ([2]; blood, Tissue uptake: Blood): 0.51 ± 0.1 %ID/g
tissue uptake at 24 h ([2]; blood, Tissue uptake: Blood): < 0.5 %ID/g
tissue uptake at 1 h ([2]; bone, Tissue uptake: Bone): < 0.5 %ID/g
tissue uptake at 24 h ([2]; bone, Tissue uptake: Bone): < 0.5 %ID/g
tissue uptake at 1 h ([2]; brain, Tissue uptake: Brain): < 0.5 %ID/g
tissue uptake at 24 h ([2]; brain, Tissue uptake: Brain): < 0.5 %ID/g
tissue uptake at 1 h ([2]; heart, Tissue uptake: Heart): < 0.5 %ID/g
tissue uptake at 24 h ([2]; heart, Tissue uptake: Heart): < 0.5 %ID/g
tissue uptake at 1 h [2, 4]: 0.6 ± 0.24 %ID/g
tissue uptake at 24 h [2, 4]: < 0.5 %ID/g
tissue uptake at 1 h [2, 5]: 11 ± 1 %ID/g
tissue uptake at 24 h [2, 5]: 4.8 ± 0.5 %ID/g
tissue uptake at 24 h ([2]; liver, Tissue uptake: Liver): < 0.5 %ID/g
tissue uptake at 24 h ([2]; lung, Tissue uptake: Lung): < 0.5 %ID/g
tissue uptake at 1 h ([2]; muscle, Tissue uptake: Muscle): < 0.5 %ID/g
tissue uptake at 24 h ([2]; muscle, Tissue uptake: Muscle): < 0.5 %ID/g
tissue uptake at 1 h [2, 6]: 1.1 ± 0.1 %ID/g
tissue uptake at 24 h [2, 6]: 0.51 ± 0.17 %ID/g
tissue uptake at 1 h [2, 7]: < 0.5 %ID/g
tissue uptake at 24 h [2, 7]: < 0.5 %ID/g
tissue uptake at 1 h ([2]; spleen, Tissue uptake: Spleen): < 0.5 %ID/g
tissue uptake at 24 h ([2]; spleen, Tissue uptake: Spleen): < 0.5 %ID/g
tissue uptake at 1 h ([2]; stomach, Tissue uptake: Stomach): 1.3 ± 0.2 %ID/g

O=C([O-])CN1CCN(CC(=O)[O-])CCN(CC(=O)NCC2CCC(C(=O)NC(Cc3ccc4ccccc4c3)C(=O)NCCCCC(NC(=O)NC(CCC(=O)O)C(=O)O)C(=O)O)CC2)CCN(CC(=O)[O-])CC1.[Lu+3] (stereo not shown) [[^175Lu]Lu-PSMA-617]
PC-3 PIP tumor-to-background organ ratios: Tumor-to-kidney ([1]; 1 h p.i.): 2.7 ± 0.8
Tissue uptake: Blood ([1]; 1 h p.i.): <0.5 % ID/g
Tissue uptake: Bone ([1]; 1 h p.i.): <0.5 % ID/g
Tissue uptake: Heart ([1]; 1 h p.i.): <0.5 % ID/g
Tissue uptake: Intestines ([1]; 1 h p.i.): <0.5 % ID/g
Tissue uptake: Kidneys ([1]; 1 h p.i.): 10 ± 4 % ID/g
Tissue uptake: Liver ([1]; 1 h p.i.): <0.5 % ID/g
Tissue uptake: Lung ([1]; 1 h p.i.): <0.5 % ID/g
Tissue uptake: Muscle ([1]; 1 h p.i.): <0.5 % ID/g
Tissue uptake: Salivary glands ([1]; 1 h p.i.): <0.5 % ID/g
Tissue uptake: Spleen ([1]; 1 h p.i.): 0.64 ± 0.48 % ID/g
Tissue uptake: Stomach ([1]; 1 h p.i.): 0.56 ± 0.19 % ID/g
Tissue uptake: PC-3 flu tumor ([1]; 1 h p.i.): <0.5 % ID/g
Tissue uptake: PC-3 PIP tumor ([1]; 1 h p.i.): 25 ± 3 % ID/g
PC-3 PIP tumor-to-background organ ratios: Tumor-to-blood ([1]; 1 h p.i.): >51^*
PC-3 PIP tumor-to-background organ ratios: Tumor-to-liver ([1]; 1 h p.i.): >51^*
PC-3 PIP tumor-to-background organ ratios: Tumor-to-kidney ([1]; 4 h p.i.): 18 ± 3
Tissue uptake: Blood ([1]; 4 h p.i.): <0.5 % ID/g
Tissue uptake: Bone ([1]; 4 h p.i.): <0.5 % ID/g
Tissue uptake: Heart ([1]; 4 h p.i.): <0.5 % ID/g
Tissue uptake: Intestines ([1]; 4 h p.i.): <0.5 % ID/g
Tissue uptake: Kidneys ([1]; 4 h p.i.): 1.4 ± 0.4 % ID/g
Tissue uptake: Liver ([1]; 4 h p.i.): <0.5 % ID/g
Tissue uptake: Lung ([1]; 4 h p.i.): <0.5 % ID/g
Tissue uptake: Muscle ([1]; 4 h p.i.): <0.5 % ID/g
Tissue uptake: Salivary glands ([1]; 4 h p.i.): <0.5 % ID/g
Tissue uptake: Spleen ([1]; 4 h p.i.): <0.5 % ID/g
Tissue uptake: Stomach ([1]; 4 h p.i.): <0.5 % ID/g
Tissue uptake: PC-3 flu tumor ([1]; 4 h p.i.): <0.5 % ID/g
Tissue uptake: PC-3 PIP tumor ([1]; 4 h p.i.): 23 ± 3 % ID/g
PC-3 PIP tumor-to-background organ ratios: Tumor-to-blood ([1]; 4 h p.i.): >47^*
PC-3 PIP tumor-to-background organ ratios: Tumor-to-liver ([1]; 4 h p.i.): >47^*
